The text below walks through data of ChEMBL document CHEMBL1909046, “DrugMatrix in vitro pharmacology data”.

Chain of Mitogen-activated protein kinase 1 (P28482 whole entry): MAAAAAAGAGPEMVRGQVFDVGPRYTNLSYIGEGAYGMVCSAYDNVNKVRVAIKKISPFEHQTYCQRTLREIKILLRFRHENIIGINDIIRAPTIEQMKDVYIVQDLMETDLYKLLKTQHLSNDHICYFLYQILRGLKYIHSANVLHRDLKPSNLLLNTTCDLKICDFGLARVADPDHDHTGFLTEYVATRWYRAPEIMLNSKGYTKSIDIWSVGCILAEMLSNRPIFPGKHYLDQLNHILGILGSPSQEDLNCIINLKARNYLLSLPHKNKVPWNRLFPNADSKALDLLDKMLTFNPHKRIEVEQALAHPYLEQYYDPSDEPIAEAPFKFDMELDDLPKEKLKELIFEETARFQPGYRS

The first experiment deals with Vasopressin V1a receptor (Homo sapiens, UniProt P37288).
Chain of Vasopressin V1a receptor (P37288 whole entry): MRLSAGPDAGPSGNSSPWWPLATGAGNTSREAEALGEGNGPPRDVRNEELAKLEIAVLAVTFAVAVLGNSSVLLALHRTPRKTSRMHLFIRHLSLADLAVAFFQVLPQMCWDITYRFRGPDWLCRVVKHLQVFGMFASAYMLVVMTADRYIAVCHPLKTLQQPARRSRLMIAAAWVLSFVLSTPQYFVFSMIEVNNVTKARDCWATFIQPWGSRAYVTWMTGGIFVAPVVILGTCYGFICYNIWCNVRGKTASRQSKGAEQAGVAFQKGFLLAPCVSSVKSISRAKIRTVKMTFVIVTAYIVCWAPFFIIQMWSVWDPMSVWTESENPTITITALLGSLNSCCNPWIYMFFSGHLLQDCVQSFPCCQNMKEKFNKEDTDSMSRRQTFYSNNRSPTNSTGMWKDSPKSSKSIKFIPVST
Test: not given
Format: cell membranes, Membrane. The conditions noted are these: hek293.
Consider `CN1CCN2c3ccccc3Cc3ccccc3C2C1` (centres undefined) [MIANSERIN], for which the IC50 (usually the concentration at which inhibition is half-maximal) is on record as “Not Active”.
Still for that read-out and setting: to `Clc1ccccc1C(c1ccccc1)(c1ccccc1)n1ccnc1` [CLOTRIMAZOLE] belongs “Not Active”; to `CC(C)(O)c1ccccc1CC[C@@H](SCC1(CC(=O)O)CC1)c1cccc(/C=C/c2ccc3ccc(Cl)cc3n2)c1` [MONTELUKAST], “Not Active”.
For `COc1ccc(CCN2CCC(Nc3nc4ccccc4n3Cc3ccc(F)cc3)CC2)cc1` [ASTEMIZOLE], the IC50 entry is given as “Not Active”.
On the same count and under the same terms, to `CN(C)CCCN1c2ccccc2CCc2ccc(Cl)cc21` [CLOMIPRAMINE] belongs “Not Active”.

For a further experiment, the target named is T1, C-C chemokine receptor type 4 (Homo sapiens, UniProt P51679). Also: in other assays of this panel Not Active means under 50% inhibition at 10 µM.
T1 sequence (P51679 whole entry): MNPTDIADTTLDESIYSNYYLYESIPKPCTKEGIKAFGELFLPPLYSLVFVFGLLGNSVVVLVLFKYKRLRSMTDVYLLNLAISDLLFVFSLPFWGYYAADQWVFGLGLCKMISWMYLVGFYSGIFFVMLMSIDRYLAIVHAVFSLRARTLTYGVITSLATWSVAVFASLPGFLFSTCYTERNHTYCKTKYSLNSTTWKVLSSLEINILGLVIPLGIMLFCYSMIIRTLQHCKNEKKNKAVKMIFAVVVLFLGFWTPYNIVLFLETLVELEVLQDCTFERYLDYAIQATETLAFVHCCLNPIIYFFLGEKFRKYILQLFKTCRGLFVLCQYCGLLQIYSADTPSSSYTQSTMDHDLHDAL
Test: not given
Format: cell membranes, Membrane. Conditions: chem-1.
For `CN1CCN2c3ccccc3Cc3ccccc3C2C1` (centres undefined) [MIANSERIN], the IC50 result is recorded as “Not Active”.
As to `Clc1ccccc1C(c1ccccc1)(c1ccccc1)n1ccnc1` [CLOTRIMAZOLE], the IC50 result was “Not Active”.
Same read-out and setting: to `CC(C)(O)c1ccccc1CC[C@@H](SCC1(CC(=O)O)CC1)c1cccc(/C=C/c2ccc3ccc(Cl)cc3n2)c1` [MONTELUKAST] belongs “Not Active”; to `COc1ccc(CCN2CCC(Nc3nc4ccccc4n3Cc3ccc(F)cc3)CC2)cc1` [ASTEMIZOLE], “Not Active”; to `CN(C)CCCN1c2ccccc2CCc2ccc(Cl)cc21` [CLOMIPRAMINE], “Not Active”.

In another experiment the target is T2, C-X-C chemokine receptor type 2 (Homo sapiens, UniProt P25025). Also: in other assays of this panel Not Active means under 50% inhibition at 10 µM.
T2 sequence (P25025 whole entry): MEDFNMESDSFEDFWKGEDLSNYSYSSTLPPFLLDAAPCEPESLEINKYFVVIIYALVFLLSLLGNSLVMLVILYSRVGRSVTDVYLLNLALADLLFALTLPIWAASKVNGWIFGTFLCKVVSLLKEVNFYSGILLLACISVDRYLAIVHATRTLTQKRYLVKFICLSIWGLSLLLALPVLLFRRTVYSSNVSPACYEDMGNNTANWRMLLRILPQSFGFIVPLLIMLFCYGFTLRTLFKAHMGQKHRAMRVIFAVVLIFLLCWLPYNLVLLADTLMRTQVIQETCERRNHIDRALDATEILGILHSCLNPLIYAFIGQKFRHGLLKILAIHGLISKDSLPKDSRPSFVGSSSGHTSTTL
Test: not given
Format: cell membranes, Membrane. The conditions noted are these: cho-k1.
For the compound `CN1CCN2c3ccccc3Cc3ccccc3C2C1` (centres undefined) [MIANSERIN], the IC50 entry is recorded as “Not Active”.
On the same count and under the same terms, to `Clc1ccccc1C(c1ccccc1)(c1ccccc1)n1ccnc1` [CLOTRIMAZOLE] belongs “Not Active”.
Turning to `CC(C)(O)c1ccccc1CC[C@@H](SCC1(CC(=O)O)CC1)c1cccc(/C=C/c2ccc3ccc(Cl)cc3n2)c1` [MONTELUKAST], the IC50 entry was “Not Active”.
As for `COc1ccc(CCN2CCC(Nc3nc4ccccc4n3Cc3ccc(F)cc3)CC2)cc1` [ASTEMIZOLE], the 50% inhibitory concentration (IC50) result is on record as “Not Active”.
Same read-out and setting: to `CN(C)CCCN1c2ccccc2CCc2ccc(Cl)cc21` [CLOMIPRAMINE] belongs “Not Active”.

A further experiment concerns the target T3, Leukotriene C4 synthase (Cavia porcellus, UniProt A6XA80).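 Also: enzyme inhibition assay of leukotriene C4 synthase, using LTA4 as the substrate; in other assays of this panel Not Active means under 50% inhibition at 10 µM.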
T3 sequence (A6XA80 whole entry): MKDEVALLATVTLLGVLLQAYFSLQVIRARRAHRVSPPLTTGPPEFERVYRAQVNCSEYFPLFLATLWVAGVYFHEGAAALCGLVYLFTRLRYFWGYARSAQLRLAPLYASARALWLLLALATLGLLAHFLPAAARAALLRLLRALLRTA
Put plainly: biochemical. Format: tissue-based, Lung.
Conditions: not given
For `CN1CCN2c3ccccc3Cc3ccccc3C2C1` (centres undefined) [MIANSERIN], the IC50 result was “Not Active”.
The same measure, in the same setting: to `Clc1ccccc1C(c1ccccc1)(c1ccccc1)n1ccnc1` [CLOTRIMAZOLE] belongs “Not Active”; to `CC(C)(O)c1ccccc1CC[C@@H](SCC1(CC(=O)O)CC1)c1cccc(/C=C/c2ccc3ccc(Cl)cc3n2)c1` [MONTELUKAST], “Not Active”; to `COc1ccc(CCN2CCC(Nc3nc4ccccc4n3Cc3ccc(F)cc3)CC2)cc1` [ASTEMIZOLE], “Not Active”.
With `CN(C)CCCN1c2ccccc2CCc2ccc(Cl)cc21` [CLOMIPRAMINE], the IC50 entry is on record as “Not Active”.

Another experiment addresses T4, Cysteinyl leukotriene receptor 1 (Homo sapiens, UniProt Q9Y271).
T4 sequence (Q9Y271 whole entry): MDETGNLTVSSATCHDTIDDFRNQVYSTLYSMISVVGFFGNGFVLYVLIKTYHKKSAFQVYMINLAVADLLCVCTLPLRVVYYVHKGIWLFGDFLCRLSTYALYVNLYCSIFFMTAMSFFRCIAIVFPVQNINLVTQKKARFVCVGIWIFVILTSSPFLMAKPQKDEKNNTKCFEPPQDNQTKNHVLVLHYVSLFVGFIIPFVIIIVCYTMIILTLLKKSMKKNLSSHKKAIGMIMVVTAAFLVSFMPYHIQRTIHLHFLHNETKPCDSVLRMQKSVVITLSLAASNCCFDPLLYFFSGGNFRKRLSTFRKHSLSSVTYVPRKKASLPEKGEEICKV
Test: not given
Format: cell membranes, CHO-K1, Membrane. Conditions: cho-k1.
With `CN1CCN2c3ccccc3Cc3ccccc3C2C1` (centres undefined) [MIANSERIN], the concentration for half-maximal inhibition (IC50) entry is “Not Active”.
For `COc1ccc(CCN2CCC(Nc3nc4ccccc4n3Cc3ccc(F)cc3)CC2)cc1` [ASTEMIZOLE], the IC50 entry is given as “Not Active”.
On the same count and under the same terms, as for `CN(C)CCCN1c2ccccc2CCc2ccc(Cl)cc21` [CLOMIPRAMINE], the entry is “Not Active”.

Still in this experiment, the particulars now being: read-out: IC50.
`Clc1ccccc1C(c1ccccc1)(c1ccccc1)n1ccnc1` [CLOTRIMAZOLE]: the IC50 is 33.2 µM.

The experiment is the same for the next values; noted with them: read-out: Ki.
With `Clc1ccccc1C(c1ccccc1)(c1ccccc1)n1ccnc1` [CLOTRIMAZOLE], the Ki (as a rule, a measure of affinity in units of concentration, obtained from inhibition or displacement) stood at 16.6 µM.

Another experiment concerns the target T5, Neuropeptide Y receptor type 1 (Homo sapiens, UniProt P25929). Also: in other assays of this panel Not Active means under 50% inhibition at 10 µM.
T5 sequence (P25929 whole entry): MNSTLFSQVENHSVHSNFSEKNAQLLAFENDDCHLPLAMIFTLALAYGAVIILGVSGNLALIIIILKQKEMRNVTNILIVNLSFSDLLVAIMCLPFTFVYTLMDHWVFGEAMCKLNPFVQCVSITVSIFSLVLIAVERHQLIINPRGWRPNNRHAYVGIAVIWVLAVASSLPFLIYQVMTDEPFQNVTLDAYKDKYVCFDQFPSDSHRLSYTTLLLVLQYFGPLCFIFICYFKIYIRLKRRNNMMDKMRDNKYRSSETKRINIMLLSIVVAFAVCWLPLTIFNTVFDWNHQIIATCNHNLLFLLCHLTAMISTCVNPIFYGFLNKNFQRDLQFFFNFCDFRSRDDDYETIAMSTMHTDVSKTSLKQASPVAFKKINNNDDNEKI
Test: not given
The conditions noted are these: sk-n-mc. Format: cell membranes, Membrane.
Take `CN1CCN2c3ccccc3Cc3ccccc3C2C1` (centres undefined) [MIANSERIN]: the IC50 entry is on record as “Not Active”.
`Clc1ccccc1C(c1ccccc1)(c1ccccc1)n1ccnc1` [CLOTRIMAZOLE]: the IC50 result is “Not Active”.
Take `CC(C)(O)c1ccccc1CC[C@@H](SCC1(CC(=O)O)CC1)c1cccc(/C=C/c2ccc3ccc(Cl)cc3n2)c1` [MONTELUKAST]: the half-maximal inhibitory concentration (IC50) result is on record as “Not Active”.
On the same count and under the same terms, to `COc1ccc(CCN2CCC(Nc3nc4ccccc4n3Cc3ccc(F)cc3)CC2)cc1` [ASTEMIZOLE] belongs “Not Active”.
On the same count and under the same terms, as for `CN(C)CCCN1c2ccccc2CCc2ccc(Cl)cc21` [CLOMIPRAMINE], the entry is “Not Active”.

For a further experiment, the target named is T6, Interstitial collagenase (Homo sapiens, UniProt P03956).
T6 sequence (P03956 whole entry): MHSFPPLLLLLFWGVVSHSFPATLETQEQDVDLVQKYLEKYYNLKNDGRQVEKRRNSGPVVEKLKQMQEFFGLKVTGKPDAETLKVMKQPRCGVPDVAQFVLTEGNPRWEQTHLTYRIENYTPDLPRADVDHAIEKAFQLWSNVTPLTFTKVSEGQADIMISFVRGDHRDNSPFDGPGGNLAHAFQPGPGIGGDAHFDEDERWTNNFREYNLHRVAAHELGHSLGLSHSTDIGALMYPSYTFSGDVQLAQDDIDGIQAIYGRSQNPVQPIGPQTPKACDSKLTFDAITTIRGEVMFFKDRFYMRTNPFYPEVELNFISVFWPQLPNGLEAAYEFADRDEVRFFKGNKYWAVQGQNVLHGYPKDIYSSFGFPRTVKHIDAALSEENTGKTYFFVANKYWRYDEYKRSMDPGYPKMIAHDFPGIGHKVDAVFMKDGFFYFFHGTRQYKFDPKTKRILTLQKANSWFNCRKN
Test: not given
Conditions: not given
Format: tissue-based, Rheumatoid synovial fibroblasts.
Take `CN1CCN2c3ccccc3Cc3ccccc3C2C1` (centres undefined) [MIANSERIN]: the IC50 entry was “Not Active”.
Still for that read-out and setting: to `Clc1ccccc1C(c1ccccc1)(c1ccccc1)n1ccnc1` [CLOTRIMAZOLE] belongs “Not Active”.
On the same count and under the same terms, as for `CC(C)(O)c1ccccc1CC[C@@H](SCC1(CC(=O)O)CC1)c1cccc(/C=C/c2ccc3ccc(Cl)cc3n2)c1` [MONTELUKAST], the entry is “Not Active”.
On the same count and under the same terms, as for `COc1ccc(CCN2CCC(Nc3nc4ccccc4n3Cc3ccc(F)cc3)CC2)cc1` [ASTEMIZOLE], the entry is “Not Active”; as for `CN(C)CCCN1c2ccccc2CCc2ccc(Cl)cc21` [CLOMIPRAMINE], “Not Active”.

The next experiment has as its target Mitogen-activated protein kinase 1 (Homo sapiens, UniProt P28482). Put plainly: DRUGMATRIX: Protein Serine/Threonine Kinase, ERK2 enzyme inhibition (substrate: Myelin Basic Protein). Conditions: Not Active = under 50% inhibition at 10 µM. Details: species or system Escherichia coli.
Turning to `CN1CCN2c3ccccc3Cc3ccccc3C2C1` (centres undefined) [MIANSERIN], the IC50 result is on record as “Not Active”.
The same measure, in the same setting: as for `Clc1ccccc1C(c1ccccc1)(c1ccccc1)n1ccnc1` [CLOTRIMAZOLE], the entry is “Not Active”; as for `CC(C)(O)c1ccccc1CC[C@@H](SCC1(CC(=O)O)CC1)c1cccc(/C=C/c2ccc3ccc(Cl)cc3n2)c1` [MONTELUKAST], “Not Active”.
`COc1ccc(CCN2CCC(Nc3nc4ccccc4n3Cc3ccc(F)cc3)CC2)cc1` [ASTEMIZOLE]: the IC50 entry is listed as “Not Active”.
Still for that read-out and setting: as for `CN(C)CCCN1c2ccccc2CCc2ccc(Cl)cc21` [CLOMIPRAMINE], the entry is “Not Active”.

A further experiment deals with T7, Adenosine receptor A3 (Homo sapiens, UniProt P0DMS8).
T7 sequence (P0DMS8 whole entry): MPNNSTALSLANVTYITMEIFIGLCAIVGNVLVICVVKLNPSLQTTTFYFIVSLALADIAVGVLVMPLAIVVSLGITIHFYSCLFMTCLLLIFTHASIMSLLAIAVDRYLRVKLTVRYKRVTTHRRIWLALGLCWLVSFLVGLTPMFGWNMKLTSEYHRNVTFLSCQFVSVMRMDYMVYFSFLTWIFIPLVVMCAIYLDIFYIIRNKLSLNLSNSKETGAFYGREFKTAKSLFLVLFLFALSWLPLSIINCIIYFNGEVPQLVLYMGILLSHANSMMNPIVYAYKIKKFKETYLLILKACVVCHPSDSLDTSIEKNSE
Test: not given
Format: cell membranes, CHO-K1, Membrane. Conditions: cho-k1.
As for `CN1CCN2c3ccccc3Cc3ccccc3C2C1` (centres undefined) [MIANSERIN], the IC50 entry was “Not Active”.
Still for that read-out and setting: to `CN(C)CCCN1c2ccccc2CCc2ccc(Cl)cc21` [CLOMIPRAMINE] belongs “Not Active”.

The experiment is the same for the next values; noted with them: read-out: IC50.
For `Clc1ccccc1C(c1ccccc1)(c1ccccc1)n1ccnc1` [CLOTRIMAZOLE], the IC50 was found to be 4.75 µM.

The experiment is the same for the next values; noted with them: read-out: Ki.
In the case of `Clc1ccccc1C(c1ccccc1)(c1ccccc1)n1ccnc1` [CLOTRIMAZOLE], the Ki was 2.69 µM.
